Test results as given in ChEMBL document CHEMBL4813924, “Isolation and Pharmacological Characterization of Six Opioidergic Picralima nitida Alkaloids” (J Nat Prod, 2021).
Activity calls are given as the source filed them. The rule behind the calls is not given here.

Key:
[1] = molecular target: T1, Delta-type opioid receptor (Homo sapiens, UniProt P41143); test: Displacement of [3H]-DPDPE from human delta opioid receptor expressed in CHO-K1 cells by radioligand binding assay; assay type: cell-based
Mu-type opioid receptor [2] = molecular target: T2, Mu-type opioid receptor (Homo sapiens, UniProt P35372); test: Displacement of [3H]-DAMGO from human mu opioid receptor expressed in CHO-K1 cells by radioligand binding assay; assay type: cell-based
[3] = molecular target: Kappa-type opioid receptor (Mus musculus) (UniProt P33534); test: Agonist activity at mouse FLAG-tagged kappa opioid receptor expressed in HEK293 cells assessed as inhibition of forskolin-induced cAMP production preincubated for 20 mins followed by forskolin stimulation and measured after 15 mins by Glo-sensor reagent based assay relative to U50488; assay type: functional, cell-based; design: scale not given: the % may be the effect or the level left; conditions: filed as agonist
D(1B) dopamine receptor [4] = molecular target: T3, D(1B) dopamine receptor (Homo sapiens, UniProt P21918); test: Displacement of [3H]-SCH23390 from dopamine D5 receptor (unknown origin) expressed in HEK-293T cells assessed as inhibition constant; assay type: cell-based
[5] = molecular target: Sodium-dependent serotonin transporter (Homo sapiens) (UniProt P31645); test: Displacement of [3H]-citalopram from SERT (unknown origin) expressed in HEK cells at 10 uM relative to control; assay type: cell-based
Mu-type opioid receptor [6] = molecular target: T2, Mu-type opioid receptor; test: Displacement of [3H]-DAMGO from mu opioid receptor (unknown origin) expressed in HEK cells at 10 uM; assay type: cell-based
[7] = molecular target: T4, Kappa-type opioid receptor (Homo sapiens, UniProt P41145); test: Displacement of [3H]-U69593 from human kappa opioid receptor expressed in U2OS cells by radioligand binding assay; assay type: cell-based
D(1B) dopamine receptor [8] = molecular target: T3, D(1B) dopamine receptor; test: Displacement of [3H]-SCH23390 from dopamine D5 receptor (unknown origin) expressed in HEK-293T cells at 10 uM; assay type: cell-based
[9] = molecular target: Kappa-type opioid receptor (Mus musculus, UniProt P33534); test: Agonist activity at mouse FLAG-tagged kappa opioid receptor expressed in HEK293 cells assessed as inhibition of forskolin-induced cAMP production preincubated for 20 mins followed by forskolin stimulation and measured after 15 mins by Glo-sensor reagent based assay; assay type: functional, cell-based
[10] = molecular target: Histamine H3 receptor (Homo sapiens) (UniProt Q9Y5N1); test: Displacement of [3H]-alpha-methylhistamine from histamine H3 receptor (unknown origin) expressed in Flp-In-293 cells at 10 uM relative to control; assay type: cell-based
[11] = molecular target: T4, Kappa-type opioid receptor; test: Agonist activity at human kappa opioid receptor expressed in U2OS cells assessed as beta-arrestin2 recruitment incubated for 90 mins by PathHunter assay; assay type: functional, cell-based
[12] = molecular target: T4, Kappa-type opioid receptor; test: Agonist activity at human kappa opioid receptor expressed in U2OS cells assessed as beta-arrestin2 recruitment incubated for 90 mins by PathHunter assay relative to U50488; assay type: functional, cell-based
[13] = molecular target: Delta-type opioid receptor (Mus musculus, UniProt P32300); test: Agonist activity at mouse FLAG-tagged delta opioid receptor expressed in HEK293 cells assessed as inhibition of forskolin-induced cAMP production preincubated for 20 mins followed by forskolin stimulation and measured after 15 mins by Glo-sensor reagent based assay; assay type: functional, cell-based
Mu-type opioid receptor [14] = molecular target: Mu-type opioid receptor (Mus musculus, UniProt P42866); test: Agonist activity at mouse HA-tagged mu opioid receptor expressed in HEK293 cells assessed as inhibition of forskolin-induced cAMP production preincubated for 20 mins followed by forskolin stimulation and measured after 15 mins by Glo-sensor reagent based assay; assay type: functional, cell-based
[15] = molecular target: Mu-type opioid receptor (Mus musculus) (UniProt P42866); test: Agonist activity at mouse HA-tagged mu opioid receptor expressed in HEK293 cells assessed as inhibition of forskolin-induced cAMP production preincubated for 20 mins followed by forskolin stimulation and measured after 15 mins by Glo-sensor reagent based assay relative to DAMGO; assay type: functional, cell-based; design: scale not given: the % may be the effect or the level left; conditions: filed as agonist
[16] = molecular target: Delta-type opioid receptor (Mus musculus) (UniProt P32300); test: Agonist activity at mouse FLAG-tagged delta opioid receptor expressed in HEK293 cells assessed as inhibition of forskolin-induced cAMP production preincubated for 20 mins followed by forskolin stimulation and measured after 15 mins by Glo-sensor reagent based assay relative to Leu-Enk; assay type: functional, cell-based; design: scale not given: the % may be the effect or the level left; conditions: filed as agonist
[17] = molecular target: T1, Delta-type opioid receptor; test: Displacement of [3H]-DADLE from delta opioid receptor (unknown origin) expressed in HEK cells at 10 uM; assay type: cell-based; conditions: filed as agonist
[18] = molecular target: T4, Kappa-type opioid receptor; test: Displacement of [3H]-U69593 from kappa opioid receptor (unknown origin) expressed in HEK cells at 10 uM; assay type: cell-based; conditions: filed as agonist
Mus musculus [19] = test: Antinociceptive activity against C57Bl/6N mouse model of thermal-induced nociception at 10 mg/kg, sc measured at 50 mins by tail-flick test; assay type: functional, organism-based
Mus musculus [20] = test: Antinociceptive activity against C57Bl/6N mouse model of thermal-induced nociception at 3 mg/kg, sc measured at 110 mins by hot-plate test; assay type: functional, organism-based
Mus musculus [21] = test: Antinociceptive activity against C57Bl/6N mouse model of thermal-induced nociception at 30 mg/kg, sc measured at 30 mins by tail-flick test; assay type: functional, organism-based
Mus musculus [22] = test: Antinociceptive activity against C57Bl/6N mouse model of thermal-induced nociception at 6 mg/kg, sc measured at 30 mins by tail-flick test; assay type: functional, organism-based
Mus musculus [23] = test: Antinociceptive activity against C57Bl/6N mouse model of thermal-induced nociception at 6 mg/kg, sc measured at 30 mins by hot-plate test; assay type: functional, organism-based

T2 sequence (P35372 whole entry): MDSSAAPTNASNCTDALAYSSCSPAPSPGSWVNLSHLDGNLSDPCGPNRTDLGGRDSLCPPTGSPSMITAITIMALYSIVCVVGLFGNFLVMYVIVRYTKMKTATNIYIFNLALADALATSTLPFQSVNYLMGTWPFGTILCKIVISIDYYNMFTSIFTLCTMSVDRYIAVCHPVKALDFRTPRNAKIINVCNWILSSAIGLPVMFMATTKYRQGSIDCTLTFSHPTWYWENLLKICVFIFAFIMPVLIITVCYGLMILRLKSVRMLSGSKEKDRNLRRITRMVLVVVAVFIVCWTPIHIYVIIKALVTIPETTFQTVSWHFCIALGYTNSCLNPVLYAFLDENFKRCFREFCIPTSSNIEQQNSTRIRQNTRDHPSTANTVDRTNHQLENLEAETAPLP
Sequence of Histamine H3 receptor (Homo sapiens) (Q9Y5N1 whole entry): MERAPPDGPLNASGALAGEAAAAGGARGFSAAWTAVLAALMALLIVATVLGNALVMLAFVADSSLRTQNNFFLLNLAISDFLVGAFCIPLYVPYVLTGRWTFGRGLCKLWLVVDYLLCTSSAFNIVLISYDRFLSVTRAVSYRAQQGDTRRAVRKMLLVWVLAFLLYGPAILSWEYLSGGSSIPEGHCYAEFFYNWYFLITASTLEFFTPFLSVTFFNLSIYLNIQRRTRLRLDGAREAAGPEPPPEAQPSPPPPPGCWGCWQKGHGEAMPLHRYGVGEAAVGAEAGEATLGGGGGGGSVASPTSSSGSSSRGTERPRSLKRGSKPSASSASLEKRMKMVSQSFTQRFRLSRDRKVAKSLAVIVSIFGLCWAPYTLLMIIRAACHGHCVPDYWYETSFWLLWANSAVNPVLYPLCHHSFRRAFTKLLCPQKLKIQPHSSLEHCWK
Sequence of Sodium-dependent serotonin transporter (Homo sapiens) (P31645 whole entry, looked up): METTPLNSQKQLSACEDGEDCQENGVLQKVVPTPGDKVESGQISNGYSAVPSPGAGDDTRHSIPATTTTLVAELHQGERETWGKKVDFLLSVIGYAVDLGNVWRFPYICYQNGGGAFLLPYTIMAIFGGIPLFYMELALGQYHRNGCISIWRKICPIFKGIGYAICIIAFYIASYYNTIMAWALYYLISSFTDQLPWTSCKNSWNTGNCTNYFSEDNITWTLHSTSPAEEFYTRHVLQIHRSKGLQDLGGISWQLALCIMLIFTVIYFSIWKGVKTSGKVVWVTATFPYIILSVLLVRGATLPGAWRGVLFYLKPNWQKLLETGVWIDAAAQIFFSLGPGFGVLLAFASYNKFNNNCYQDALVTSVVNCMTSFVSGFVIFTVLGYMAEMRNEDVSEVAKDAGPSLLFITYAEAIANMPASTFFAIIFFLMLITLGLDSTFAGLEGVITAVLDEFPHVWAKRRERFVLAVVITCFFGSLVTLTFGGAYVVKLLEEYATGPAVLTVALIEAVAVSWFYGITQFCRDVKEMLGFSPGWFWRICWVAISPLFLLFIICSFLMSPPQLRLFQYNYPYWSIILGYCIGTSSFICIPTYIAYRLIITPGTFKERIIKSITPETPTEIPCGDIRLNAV
T1 sequence (P41143 whole entry): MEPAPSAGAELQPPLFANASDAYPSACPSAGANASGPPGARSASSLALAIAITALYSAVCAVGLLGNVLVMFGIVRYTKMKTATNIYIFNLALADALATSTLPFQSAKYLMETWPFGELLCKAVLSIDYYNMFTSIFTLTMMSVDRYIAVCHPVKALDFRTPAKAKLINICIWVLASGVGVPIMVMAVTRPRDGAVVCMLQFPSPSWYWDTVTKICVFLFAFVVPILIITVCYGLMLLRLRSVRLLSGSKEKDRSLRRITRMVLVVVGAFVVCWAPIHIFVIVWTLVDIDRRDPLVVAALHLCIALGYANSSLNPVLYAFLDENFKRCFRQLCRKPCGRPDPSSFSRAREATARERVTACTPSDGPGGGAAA
T4 sequence (P41145 whole entry): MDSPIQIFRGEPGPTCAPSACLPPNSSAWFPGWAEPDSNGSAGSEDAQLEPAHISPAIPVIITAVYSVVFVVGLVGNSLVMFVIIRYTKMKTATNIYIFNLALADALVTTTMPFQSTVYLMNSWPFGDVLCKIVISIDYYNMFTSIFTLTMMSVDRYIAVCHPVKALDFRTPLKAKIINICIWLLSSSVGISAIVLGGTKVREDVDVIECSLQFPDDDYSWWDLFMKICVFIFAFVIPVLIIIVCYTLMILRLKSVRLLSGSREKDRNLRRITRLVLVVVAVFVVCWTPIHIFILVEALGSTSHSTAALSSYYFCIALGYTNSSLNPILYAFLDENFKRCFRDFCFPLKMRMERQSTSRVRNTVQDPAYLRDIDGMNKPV
Sequence of Mu-type opioid receptor (Mus musculus) (P42866 whole entry): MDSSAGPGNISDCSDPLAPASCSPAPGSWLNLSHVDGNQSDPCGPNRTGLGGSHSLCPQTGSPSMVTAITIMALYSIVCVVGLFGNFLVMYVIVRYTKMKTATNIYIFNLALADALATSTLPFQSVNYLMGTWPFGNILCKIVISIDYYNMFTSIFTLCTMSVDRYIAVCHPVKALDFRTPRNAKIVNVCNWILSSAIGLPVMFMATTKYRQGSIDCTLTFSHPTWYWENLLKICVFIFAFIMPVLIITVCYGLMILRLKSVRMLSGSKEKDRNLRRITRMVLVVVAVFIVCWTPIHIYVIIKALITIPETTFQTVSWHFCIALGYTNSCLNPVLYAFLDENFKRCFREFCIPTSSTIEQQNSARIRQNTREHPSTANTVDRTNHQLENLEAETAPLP
Sequence of Mu-type opioid receptor (Mus musculus, UniProt P42866) (P42866 whole entry): as above
Sequence of Kappa-type opioid receptor (Mus musculus, UniProt P33534) (P33534 whole entry): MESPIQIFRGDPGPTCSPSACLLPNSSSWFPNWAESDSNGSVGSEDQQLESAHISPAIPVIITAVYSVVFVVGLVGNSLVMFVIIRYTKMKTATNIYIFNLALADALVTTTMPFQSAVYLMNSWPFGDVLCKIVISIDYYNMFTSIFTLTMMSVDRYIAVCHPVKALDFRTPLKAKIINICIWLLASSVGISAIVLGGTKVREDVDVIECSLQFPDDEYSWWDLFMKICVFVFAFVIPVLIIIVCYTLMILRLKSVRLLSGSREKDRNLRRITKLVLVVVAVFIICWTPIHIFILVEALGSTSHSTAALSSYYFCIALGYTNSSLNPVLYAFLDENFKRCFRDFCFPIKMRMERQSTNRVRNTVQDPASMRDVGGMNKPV
Sequence of Kappa-type opioid receptor (Mus musculus) (P33534 whole entry): as above
T3 sequence (P21918 whole entry): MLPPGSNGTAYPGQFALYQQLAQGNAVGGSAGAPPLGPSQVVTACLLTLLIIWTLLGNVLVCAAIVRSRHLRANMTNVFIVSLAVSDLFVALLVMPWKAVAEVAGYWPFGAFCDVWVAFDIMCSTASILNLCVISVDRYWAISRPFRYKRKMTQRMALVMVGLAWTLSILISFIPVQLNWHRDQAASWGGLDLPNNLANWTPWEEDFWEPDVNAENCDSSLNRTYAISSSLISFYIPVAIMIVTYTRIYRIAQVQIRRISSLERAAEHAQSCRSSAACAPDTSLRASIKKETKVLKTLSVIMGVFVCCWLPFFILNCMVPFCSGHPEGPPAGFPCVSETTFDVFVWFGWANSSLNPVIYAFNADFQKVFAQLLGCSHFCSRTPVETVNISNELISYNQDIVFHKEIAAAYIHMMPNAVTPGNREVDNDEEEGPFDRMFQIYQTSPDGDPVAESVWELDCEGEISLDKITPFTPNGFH
Sequence of Delta-type opioid receptor (Mus musculus) (P32300 whole entry): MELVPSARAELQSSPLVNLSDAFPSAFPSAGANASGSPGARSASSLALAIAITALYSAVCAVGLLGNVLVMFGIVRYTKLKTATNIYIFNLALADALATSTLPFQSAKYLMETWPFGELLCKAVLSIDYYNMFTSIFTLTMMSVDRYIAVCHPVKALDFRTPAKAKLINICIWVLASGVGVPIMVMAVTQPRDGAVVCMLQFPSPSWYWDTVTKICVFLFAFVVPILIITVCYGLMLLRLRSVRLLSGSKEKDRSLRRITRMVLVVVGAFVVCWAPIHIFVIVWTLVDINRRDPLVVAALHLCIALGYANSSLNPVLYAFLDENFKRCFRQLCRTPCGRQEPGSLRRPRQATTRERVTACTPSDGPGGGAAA
Sequence of Delta-type opioid receptor (Mus musculus, UniProt P32300) (P32300 whole entry): as above

SMILES	Ki [1] [µM]	Ki (Mu-type opioid receptor [2]) [µM]	Activity [3] [%]	Ki (D(1B) dopamine receptor [4]) [µM]	inhibition [5] [%]	Ki [7] [µM]	inhibition (D(1B) dopamine receptor [8])	IC50 [9] [µM]	inhibition [10] [%]	IC50 ([13]; read-out: IC50) [µM]	IC50 (Mu-type opioid receptor [14]) [µM]	Activity [15] [%]	Activity [16] [%]	inhibition [17]	inhibition [18]	also measured
C/C=C1/CN2CC[C@]34C(=C(C(=O)OC)[C@H]1C[C@H]23)Nc1ccccc14 [AKUAMMICINE]	23.2	3.31	84	> 10	< 60	0.089	Active	0.24	< 60	12.4	8.24	45	60	Active	Active	inhibition (Mu-type opioid receptor [6]; filed as agonist): Active; EC50 [11]: 39.8 µM; Activity ([12]; filed as agonist): 50%; IC50 ([13]; read-out: pIC50 (converted)): 12.6 µM
C/C=C1/CN2CC[C@@]34c5cc(O)ccc5N(C)[C@]35OC[C@@]4(C(=O)OC)[C@H]1C[C@H]25	10.4			> 10	< 60		Active	0.073	< 60	20.3						
C/C=C1/CN2CC[C@@]34c5ccccc5N(C)[C@]35OC[C@@]4(C(=O)OC)[C@H]1C[C@H]25	8.37			> 10	< 60		Active	6.46	< 60	95.6						
C/C=C1/CN2[C@H]3Cc4c([nH]c5ccccc45)[C@@H]2C[C@@H]1[C@]3(CO)C(=O)OC	15	0.32				14.2				15.4	3.14	94	90			Activity (Mus musculus [19]): Active; Activity (Mus musculus [20]): inactive; Activity (Mus musculus [21]): Active
C/C=C1/CN2CC[C@]34C(=Nc5ccccc53)[C@@H]2C[C@@H]1[C@@]4(COC(C)=O)C(=O)OC	60.3	30.7	92	> 10	< 60	1.11	Active	2.71	< 60	24.4	18.7	50	90	Active	Active	inhibition (Mu-type opioid receptor [6]): inactive; Activity [12]: 30%
C/C=C1/CN2[C@@H]3C[C@@]45c6ccccc6N[C@]4(O3)[C@@H]2C[C@@H]1[C@@]5(COC(C)=O)C(=O)OC	98.8	132	92	> 10	< 60	2.38	Active	1.97	< 60		45			Active	Active	inhibition (Mu-type opioid receptor [6]): inactive
CN1CC[C@]23c4c5ccc(O)c4O[C@H]2[C@@H](O)C=C[C@H]3[C@H]1C5																Activity (Mus musculus [22]): Active; Activity (Mus musculus [23]): Active
